{"source": "patent US20250281433A1", "about": "“NOVEL DERIVATIVE COMPOUND HAVING BIPHENYL GROUP INTRODUCED INTO AMINO-ALKANOIC ACID AND ANTI-INFLAMMATORY COMPOSITION COMPRISING SAME” (AMTIXBIO CO., LTD., priority 2020, published 2025)", "key": {"[1]": {"tested_on": "IL-6 production in RAW264.7 cells", "assay": "LPS-induced IL-6 production in RAW264.7 cells (ELISA)", "format": "cell-based, mouse", "procedure": "The inhibitory effect on induced IL-6 cytokine production was analyzed. RAW264.7 cells (obtained from the Korean Cell Line Bank) were seeded at a density of 5×10^5 cells/well in a 12-well plate and stabilized in a CO2 incubator at 37° C. with 5% carbon dioxide and saturated humidity. After 24 hours of incubation, the compounds of the present invention were prepared in DMEM at concentrations of 0 μg/mL or 8 μg/mL and pre-treated for 30 minutes. Next, lipopolysaccharide (LPS, Sigma-Aldrich, Cat No. L2887) was treated to a concentration of 1 μg/mL to induce an inflammatory response for 24 hours. Subsequently, mouse IL-6 ELISA kit (Labiskoma, Cat No. K0331230P) and mouse TNF-α ELISA kit (Labiskoma, Cat No. K0331186P) were used according to the manufacturer's instructions, and absorbance was measured. FK506 (FK-506 monohydrate, manufacturer: MilliporeSigma, product number: F4679, U.S.A) was used as a control substance.\nAfter inducing inflammation as described in (1) and (2) above, the supernatant was collected, and the quantification of IL-6 in the supernatant was performed using the IL-6 ELISA kit (Mouse IL-6 ELISA Kit, pink-ONE, manufactured by Komabiotech, Product No. K0331230P) according to the manufacturer's instructions. Specifically, the amount of IL-6 in the supernatant was quantified according to the ELISA kit protocol, and the absorbance was measured at OD 450 nm using a microplate reader (Multiskan Sky, manufactured by Thermo Fisher Scientific). […] In Table 1 to Table 3, FIG. 1, and FIG. 2, the relative values of IL-6 generated after pretreatment with the compounds of the present invention were expressed as a percentage relative to the IL-6 production (100%) induced by LPS, TNF-α, or IFN-β treatment."}, "[2]": {"tested_on": "TSLP in HaCaT keratinocytes", "settings": "8 μg/ml, 1 h pre-treatment, TNF-α 100 ng/ml 24 h; compared to the control group FK506", "procedure": "(§1) HaCaT keratinocytes, a human skin keratinocyte cell line (obtained from the Korean Cell Line Bank), were seeded in a 12-well plate at a density of 1×10^5 cells per well and cultured for at least 12 hours in a 37° C. humidified incubator containing 5% carbon dioxide and saturated water vapor. After pre-treatment with the compound 77 of the present invention (0 μg/ml or 8 μg/ml) or the immunosuppressant FK506 (FK-506 monohydrate, manufacturer: MilliporeSigma product number: F4679, USA) as a control for 1 hour, TNF-α (Tumor Necrosis Factor-α human, manufacturer: MilliporeSigma) was treated for 24 hours as an inflammatory response inducer at a concentration of 100 ng/ml. Next, the supernatant was obtained and TSLP and IL-6 ELISA (Human TSLP and IL-6 ELISA Kit, pink-ONE, manufacturer: Komabiotech) each was performed. Specifically, the contents of TSLP and IL-6 in the supernatant were quantified according to the protocol of the ELISA kit with the supernatant, and absorbance was measured at a wavelength of 450 nm using a microplate reader (Multiskan Sky, manufacturer: Thermo Fisher Scientific, product number: 51119600DP)."}, "[3]": {"tested_on": "interleukin-6 in HaCaT keratinocytes", "settings": "8 μg/ml, 1 h pre-treatment, TNF-α 100 ng/ml 24 h; compared to the control group FK506", "procedure": "as §1"}}}
{"compound": "CCCC(N)C(=O)NCCc1ccc(-c2ccc(C(F)(F)F)cc2)cc1.Cl", "note": "(racemic) [Compound 77, (R)/(S)-2-amino-N-(2-(4′-(trifluoromethyl)-[1,1′-biphenyl]-4-yl)ethyl)pentanamide hydrochloride]", "values": [{"measurement": "IL-6", "setting": "[1]; Table 1, LPS 1 μg/mL 24 h, compound 77 at 8 μg/ml, FK506 concentration not given", "result": 191.20, "unit": "pg/mL"}, {"measurement": "IL-6 (%)", "setting": "[1]; Table 1, relative to IL-6 production induced by LPS (100%), compound 77 at 8 μg/ml, FK506 concentration not given", "result": 13.19, "unit": "%"}, {"measurement": "Relative amount of IL-6 compared to LPS induction (%)", "setting": "[1]; Table 3, LPS 1 μg/mL 24 h, compounds at 8 μg/mL (FIG. 1), LPS alone = 100%", "result": 5, "unit": "%"}, {"measurement": "amount of TSLP", "setting": "[2]", "result": "significantly reduced"}, {"measurement": "amount of interleukin-6", "setting": "[3]", "result": "significantly reduced"}]}
